# Source: patent US20060205642A1, “Oral methods of treatment using proANF peptides” (priority 2005, published 2006)
# Assays:
# [1] = tested on: prostaglandin E2 (PGE2) synthesis; experiment: Prostaglandin E2 synthesis (FIG. 8); assay type: biochemical; settings: n=6, ANOVA and Duncan's MRT
# [2] = Infusion into human subjects with Class III NYHA congestive heart failure; assay type: in vivo, humans
# Description: Human proANF's 1-30, 31-67, 79-98, and 99-126 (i.e., ANF) were infused into human subjects with Class III New York Heart Association congestive heart failure (CHF). An identical protocol to that used in example V where these peptides were infused into healthy human subjects was utilized. (See Attachment C and F for a detailed description of this protocol). The human subjects with congestive heart failure received an identical dose (0.1 μg/kg body wt/minute for 60 minutes) that the healthy human subjects received. […] This striking urine output secondary to proANF 31-67 was significant at P<0.0001 compared to the pre-infusion output of the congestive heart failure subjects (n=6).
substance,measurement,setting,value
H-EVVPPQVLSEPNEEAGAALSPLPEVPPWTGEVSPAQR-OH [proANF 31-67],prostaglandin E2 (PGE2) synthesis,[1],increase prostaglandin E2 (PGE2) synthesis
same,FENa 20 minutes after infusion began,[2]; CHF,doubled
same,FENa at the end of the infusion vs baseline,[2]; CHF,4.5 fold
same,decrease of central venous pressure,[2]; CHF,27%
same,decrease of pulmonary capillary wedge pressure,[2]; CHF,33%
same,heart rate,[2]; CHF,did not change significantly
same,increase of cardiac index,[2]; CHF,35%
same,increase of cardiac output,[2]; CHF,34%
same,increase of stroke volume index,[2]; CHF,24%
same,mean pulmonary artery pressure,[2]; CHF,did not change significantly
same,sodium excretion within 20 minutes,[2]; CHF,doubling
same,enhancement of sodium excretion,"[2]; CHF subjects, 100 ng/kg body weight/min for 60 minutes",three-to-eight fold
same,urine output in 20 minutes,"[2]; CHF, 0.1 μg/kg body wt/minute for 60 minutes",doubled
same,urine output at the end of the 60 minute infusion,"[2]; CHF, 0.1 μg/kg body wt/minute, n=6",4.8 fold
same,fractional excretion of sodium (in words),"[2]; CHF, 100 ng/kg body weight per minute for 60 minutes",significantly (P<0.05) increased
same,maximum increase of fractional excretion of sodium (FENa),"[2]; CHF, P<0.001",6 fold
same,sodium excretion 3 hours after infusion was stopped vs baseline,"[2]; CHF, P<0.01",3 fold
same,decrease of pulmonary vascular resistance,"[2]; CHF, during the infusion",25%
same,decrease of systemic vascular resistance,"[2]; CHF, during the infusion",24%
same,urine output 3 hours after stopping the infusion vs pre-infusion values,"[2]; CHF, n=6",4.3 fold
same,urine output 3 hours after stopping the infusion,"[2]; CHF, n=6, baseline 1.56±0.35 mL/min",6.7 ± 0.65 mL/min
same,cardiac index after proANF 31-67,"[2]; CHF, from 2.66±0.01",3.58±0.01 L·min^−1·m^−2
same,cardiac output after proANF 31-67,"[2]; CHF, from 5.35±0.9 L/min",7.9 ± 1.2 L/min
same,effects in persons with CHF compared to healthy individuals,[2]; diuretic and natriuretic effects,"not blunted (i.e., decreased) compared to healthy individuals"
same,adverse effects,"[2]; human, in vivo",no adverse effects
same,hypotension,"[2]; human, in vivo",None became hypotensive
same,increase in urinary volume and flow,"[2]; one CHF patient, for six hours after infusion was stopped",2 fold
